Results reported in PubChem BioAssay AID330 (DTP/NCI, 2004).
Values joined by “and” are separate entries in the source; they are usually repeats but may differ in a detail not shown here. Equal values may be shown once. Inconclusive results and toxic doses are left out.

Tested on: P388 leukemia ip, CD2F1 mice, survival T/C
Assay: NCI In Vivo Anticancer Drug Screen. Data for tumor model P388 Leukemia (intraperitoneal) in CD2F1 (CDF1) mice
Details: endpoint: median survival time, higher = longer survival
Summary of the method: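 Mice carrying the transplanted tumor received test compound or vehicle. Survival was recorded in each group, and the value is the treated-group measurement divided by that of the vehicle-treated control group.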

[1] = dose: 100.0 mg/kg/injection, schedule: Q01DX009 (ip), vehicle: saline with Tween-80
[2] = dose: 200.0 mg/kg/injection, schedule: Q01DX009 (ip), vehicle: saline with Tween-80
[3] = dose: 400.0 mg/kg/injection, schedule: Q01DX009 (ip), vehicle: saline with Tween-80
[4] = dose: 25.0 mg/kg/injection, schedule: Q01DX005 (ip), vehicle: Klucel (hydroxypropylcellulose) (HPC)
[5] = dose: 100.0 mg/kg/injection, schedule: Q01DX001 (ip), vehicle: Klucel (hydroxypropylcellulose) (HPC)
[6] = dose: 200.0 mg/kg/injection, schedule: Q01DX001 (ip), vehicle: Klucel (hydroxypropylcellulose) (HPC)
[7] = dose: 60.0 mg/kg/injection, schedule: Q01DX005 (ip), vehicle: saline with Tween-80
[8] = dose: 120.0 mg/kg/injection, schedule: Q01DX005 (ip), vehicle: saline with Tween-80
[9] = dose: 50.0 mg/kg/injection, schedule: Q01DX005 (ip), vehicle: Klucel (hydroxypropylcellulose) (HPC)
[10] = dose: 100.0 mg/kg/injection, schedule: Q01DX005 (ip), vehicle: Klucel (hydroxypropylcellulose) (HPC)
[11] = dose: 25.0 mg/kg/injection, schedule: Q01DX009 (ip), vehicle: saline
[12] = dose: 50.0 mg/kg/injection, schedule: Q01DX009 (ip), vehicle: saline
[13] = dose: 200.0 mg/kg/injection, schedule: Q01DX009 (ip), vehicle: saline
[14] = dose: 50.0 mg/kg/injection, schedule: Q01DX005 (ip), vehicle: saline
[15] = dose: 100.0 mg/kg/injection, schedule: Q01DX005 (ip), vehicle: saline
[16] = dose: 200.0 mg/kg/injection, schedule: Q01DX005 (ip), vehicle: Klucel (hydroxypropylcellulose) (HPC)
[17] = dose: 50.0 mg/kg/injection, schedule: Q01DX009 (ip), vehicle: saline with Tween-80
[18] = dose: 60.0 mg/kg/injection, schedule: Q01DX005 (ip), vehicle: saline
[19] = dose: 120.0 mg/kg/injection, schedule: Q01DX005 (ip), vehicle: saline
[20] = dose: 100.0 mg/kg/injection, schedule: Q04DX003 (ip), vehicle: saline with Tween-80
[21] = dose: 200.0 mg/kg/injection, schedule: Q04DX003 (ip), vehicle: saline with Tween-80

SMILES: CN(C)C(=O)c1cccc(COc2ccc(N)cc2Cl)c1
- T/C [1]: 95 % of control
- T/C [2]: 90 % of control
- T/C [3]: 95 % of control

SMILES: COc1cccc2c1C(=O)c1c(O)c3c(c(O)c1C2=O)CC(O)(C(=O)COC(C)C)CC3O (stereo not drawn)
- T/C (dose: 1.56 mg/kg/injection, schedule: Q01DX009 (ip), vehicle: other): 100 % of control
- T/C (dose: 3.13 mg/kg/injection, schedule: Q01DX009 (ip), vehicle: other): 100 % of control
- T/C (dose: 6.25 mg/kg/injection, schedule: Q01DX009 (ip), vehicle: other): 100 % of control
- T/C (dose: 12.5 mg/kg/injection, schedule: Q01DX009 (ip), vehicle: other): 103 % of control
- T/C (dose: 25.0 mg/kg/injection, schedule: Q01DX009 (ip), vehicle: other): 103 % of control

SMILES: Cc1cc(N/N=C/c2cccc3ccccc23)c2cc3c(cc2n1)OCO3
- T/C (dose: 6.25 mg/kg/injection, schedule: Q01DX005 (ip), vehicle: Klucel (hydroxypropylcellulose) (HPC)): 95 % of control
- T/C (dose: 12.5 mg/kg/injection, schedule: Q01DX005 (ip), vehicle: Klucel (hydroxypropylcellulose) (HPC)): 100 % of control
- T/C [4]: 112 % of control

SMILES: CC(=O)NC(CNC(C)C)C(=O)O (stereo not drawn)
- T/C (dose: 50.0 mg/kg/injection, schedule: Q01DX001 (ip), vehicle: Klucel (hydroxypropylcellulose) (HPC)): 102 % of control
- T/C [5]: 106 % of control
- T/C [6]: 98 % of control

SMILES: CCc1c[nH]c(C=O)c1CC
- T/C [7]: 100 % of control
- T/C [8]: 100 % of control
- T/C (dose: 240.0 mg/kg/injection, schedule: Q01DX005 (ip), vehicle: saline with Tween-80): 99 % of control

SMILES: [Br][Sn]([CH2]CC[CH2][Sn]([Br])([c]1ccccc1)[c]1ccccc1)([c]1ccccc1)[c]1ccccc1
- T/C [9]: 93 % of control
- T/C [10]: 100 % of control

SMILES: O=C(O)c1cc2ccc(Cl)cc2[se]1
- T/C (dose: 12.5 mg/kg/injection, schedule: Q01DX009 (ip), vehicle: saline): 89 % of control
- T/C [11]: 105 % of control
- T/C [12]: 106 % of control and 88 % of control
- T/C [13]: 91 % of control

SMILES: O=C(O)C1CC(O)CN1 (stereo not drawn)
- T/C [14]: 106 % of control
- T/C [15]: 106 % of control
- T/C (dose: 200.0 mg/kg/injection, schedule: Q01DX005 (ip), vehicle: saline): 110 % of control

SMILES: CC(=O)O[C@@H]1CO[C@H]2O[C@H]3[C@@H](C(C=O)=C[C@H](O)[C@@H]4C5=C(C(C)C)CC[C@]5(C)CC[C@@]34C)[C@@]2(O)C1=O
- T/C (dose: 0.39 mg/kg/injection, schedule: Q01DX009 (ip), vehicle: Klucel (hydroxypropylcellulose) (HPC)): 94 % of control
- T/C (dose: 0.78 mg/kg/injection, schedule: Q01DX009 (ip), vehicle: Klucel (hydroxypropylcellulose) (HPC)): 104 % of control
- T/C (dose: 3.12 mg/kg/injection, schedule: Q01DX009 (ip), vehicle: Klucel (hydroxypropylcellulose) (HPC)): 107 % of control and 114 % of control
- T/C (dose: 6.25 mg/kg/injection, schedule: Q01DX009 (ip), vehicle: Klucel (hydroxypropylcellulose) (HPC)): 115 % of control and 121 % of control

SMILES: Clc1ccc(CSc2nnc3c(n2)[nH]c2ccccc23)cc1
- T/C [9]: 100 % of control
- T/C [10]: 107 % of control
- T/C [16]: 98 % of control

SMILES: O=c1oc(-c2ccccc2)cc(N2CCCCC2)c1Cl
- T/C [17]: 97 % of control
- T/C [1]: 97 % of control
- T/C [2]: 97 % of control

SMILES: CCOC(=O)C(C(=O)OCC)c1ccccn1
- T/C [17]: 98 % of control
- T/C [1]: 107 % of control
- T/C [2]: 108 % of control

SMILES: N#CC1(OC2OC(CO)C(O)C(O)C2O)C=CC(O)C1 (stereo not drawn)
- T/C (dose: 25.0 mg/kg/injection, schedule: Q01DX005 (ip), vehicle: saline): 91 % of control
- T/C [14]: 94 % of control
- T/C [15]: 106 % of control

SMILES: CN(C(=S=O)c1ccccc1)c1ccc([N+](=O)[O-])cc1
- T/C (dose: 50.0 mg/kg/injection, schedule: Q04DX002 (ip), vehicle: saline): 95 % of control
- T/C (dose: 100.0 mg/kg/injection, schedule: Q04DX002 (ip), vehicle: saline): 95 % of control
- T/C (dose: 200.0 mg/kg/injection, schedule: Q04DX002 (ip), vehicle: saline): 96 % of control

SMILES: CSCC(NP1(=O)SC(NN=C(C)C)=NC1(C)C)C(=O)O (stereo not drawn)
- T/C [18]: 106 % of control
- T/C [19]: 107 % of control

SMILES: CCOc1nc(N)nc(C)c1N=Nc1ccc(O)cc1
- T/C [18]: 100 % of control
- T/C [19]: 99 % of control
- T/C (dose: 240.0 mg/kg/injection, schedule: Q01DX005 (ip), vehicle: saline): 96 % of control

SMILES: CCCCCN(CCCCC)CCC(O)c1cccc2ccccc12 (stereo not drawn)
- T/C (dose: 12.5 mg/kg/injection, schedule: Q01DX005 (ip), vehicle: saline with Tween-80): 100 % of control
- T/C (dose: 25.0 mg/kg/injection, schedule: Q01DX005 (ip), vehicle: saline with Tween-80): 105 % of control
- T/C (dose: 50.0 mg/kg/injection, schedule: Q01DX005 (ip), vehicle: saline with Tween-80): 103 % of control and 113 % of control

SMILES: CCCCCCCCCCCCCCCCOc1ccccc1CNc1cc(Cl)ccc1Cl
- T/C [1]: 100 % of control
- T/C [20]: 100 % of control
- T/C [2]: 91 % of control
- T/C [21]: 100 % of control
- T/C [3]: 100 % of control
- T/C (dose: 400.0 mg/kg/injection, schedule: Q04DX003 (ip), vehicle: saline with Tween-80): 86 % of control

SMILES: C=C=CN1C(C)=CC(=C2C(=O)c3ccccc3C2=O)C=C1C
- T/C [4]: 99 % of control and 97 % of control
- T/C [9]: 104 % of control and 92 % of control and 96 % of control
- T/C (dose: 60.0 mg/kg/injection, schedule: Q01DX005 (ip), vehicle: Klucel (hydroxypropylcellulose) (HPC)): 87 % of control
- T/C [10]: 117 % of control and 96 % of control and 97 % of control
- T/C (dose: 120.0 mg/kg/injection, schedule: Q01DX005 (ip), vehicle: Klucel (hydroxypropylcellulose) (HPC)): 97 % of control
- T/C [16]: 106 % of control and 93 % of control

SMILES: N#CCc1noc2ccccc12
- T/C (dose: 12.5 mg/kg/injection, schedule: Q01DX009 (ip), vehicle: saline with Tween-80): 103 % of control
- T/C (dose: 25.0 mg/kg/injection, schedule: Q01DX009 (ip), vehicle: saline with Tween-80): 109 % of control

SMILES: Cc1ccc2[nH]c(=O)oc(=O)c2c1
- T/C [11]: 105 % of control
- T/C [12]: 107 % of control
- T/C (dose: 50.0 mg/kg/injection, schedule: Q04DX003 (ip), vehicle: saline with Tween-80): 100 % of control
- T/C (dose: 100.0 mg/kg/injection, schedule: Q01DX009 (ip), vehicle: saline): 96 % of control
- T/C [20]: 108 % of control
- T/C [13]: 110 % of control
- T/C [21]: 108 % of control

SMILES: O=C1N[C@@H](Cc2ccccc2)C(=O)N2CSC[C@H]12
- T/C [5]: 99 % of control
- T/C [6]: 102 % of control
- T/C (dose: 400.0 mg/kg/injection, schedule: Q01DX001 (ip), vehicle: Klucel (hydroxypropylcellulose) (HPC)): 102 % of control

SMILES: CCC1CC2CN(CCc3c([nH]c4ccccc34)C(C(=O)OC)(c3cc4c(cc3OC)N(C)C3C(O)(C(=O)OC)C(OC(C)=O)C5(CC)C=CCN6CCC43C65)C2)C1 (stereo not drawn)
- T/C (dose: 0.05 mg/kg/injection, schedule: Q01DX009 (ip), vehicle: Klucel (hydroxypropylcellulose) (HPC)): 123 % of control
- T/C (dose: 0.06 mg/kg/injection, schedule: Q01DX009 (ip), vehicle: water): 124 % of control
- T/C (dose: 0.25 mg/kg/injection, schedule: Q04DX003 (ip), vehicle: water): 150 % of control
- T/C (dose: 0.4 mg/kg/injection, schedule: Q01DX009 (ip), vehicle: Klucel (hydroxypropylcellulose) (HPC)): 169 % of control
- T/C (dose: 0.5 mg/kg/injection, schedule: Q04DX003 (ip), vehicle: water): 160 % of control
- T/C (dose: 0.8 mg/kg/injection, schedule: Q01DX009 (ip), vehicle: Klucel (hydroxypropylcellulose) (HPC)): 169 % of control
- T/C (dose: 1.0 mg/kg/injection, schedule: Q04DX003 (ip), vehicle: water): 223 % of control
- T/C (dose: 2.0 mg/kg/injection, schedule: Q04DX003 (ip), vehicle: water): 232 % of control
- T/C (dose: 4.0 mg/kg/injection, schedule: Q01DX009 (ip), vehicle: water): 115 % of control

SMILES: COC(=O)c1nc(N)nc(C(=O)OC)c1C(=O)c1c(C)[nH]c2ccccc12
- T/C [7]: 114 % of control
- T/C [8]: 91 % of control
